Results from US20250122160A1, “PROTEIN TYROSINE PHOSPHATASE INHIBITORS AND METHODS OF USE THEREOF” (Calico Life Sciences LLC, priority 0001, published 2025).

Assays:
[1] = molecular target: T1, His tagged PTPN2 (TC45) protein (Homo sapiens, UniProt P17706); assay: Mobility shift assay (MSA) to determine potency of PTPN2 inhibitors; assay type: biochemical; conditions: 0.5 nM enzyme, 2 μM substrate
T1 construct: made in house
T1 sequence (P17706 with tags, fused parts or gaps isoform P17706-2): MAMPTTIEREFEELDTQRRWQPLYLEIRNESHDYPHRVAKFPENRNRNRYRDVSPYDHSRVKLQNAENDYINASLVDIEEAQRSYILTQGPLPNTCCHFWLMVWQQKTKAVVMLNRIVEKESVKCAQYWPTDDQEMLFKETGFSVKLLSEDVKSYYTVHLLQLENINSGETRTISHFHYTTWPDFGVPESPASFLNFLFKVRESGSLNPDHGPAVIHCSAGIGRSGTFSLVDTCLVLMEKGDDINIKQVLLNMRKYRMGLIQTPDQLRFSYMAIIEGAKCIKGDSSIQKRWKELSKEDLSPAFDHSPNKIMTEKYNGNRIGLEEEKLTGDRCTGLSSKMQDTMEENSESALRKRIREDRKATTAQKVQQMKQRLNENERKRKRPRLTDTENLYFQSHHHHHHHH
Procedure: Compound activity was determined using in house His tagged PTPN2 (TC45) protein (SEQ ID NO: 1) in an in vitro enzymatic reaction. The enzymatic assay used to determine activity was a mobility shift assay using a LabChip EZ Reader by Caliper Life Sciences. The enzymatic reaction was carried out in assay buffer (50 mM HEPES pH 7.5, 1 mM EGTA, 10 mM EDTA, 0.01% Tween® 20, and 2 mM DTT). The compounds were dispensed on a white 384 well ProxiPlate™ (PerkinElmer Catalog #6008289) plate using the Labcyte Echo at varying concentrations (12 point, 1:3 dilution). The enzyme (at 0.5 nM) was incubated with compound for 10 minutes at room temperature. Then the substrate (phosphorylated insulin receptor probe sequence: ((OG488)-(NH—CH2—CH2—O—CH2—CH2—O—CH2—CO)-T-R-D-I-(PY)-E-T-D-Y—Y—R—K—K—NH2) (SEQ ID NO: 2) was added at 2 μM to the plates and incubated for another 10 minutes at room temperature. Finally, a quench solution (water and 4-bromo-3-(2-oxo-2-propoxyethoxy)-5-(3-{[1-(phenylmethanesulfonyl)piperidin-4-yl]amino}phenyl)thiophene-2-carboxylic acid) was added to the plates, which were then run on the EZ Reader (excitation 488 nm, emission 530 nm) to measure % conversion (the amount of phosphorylated substrate which was de-phosphorylated by PTPN2). […] The % inhibition was then used to calculate the IC50 values.

[2] = molecular target: T2, His tagged full-length PTPN1 protein (Homo sapiens, UniProt P18031); assay: Mobility shift assay (MSA) to determine potency of PTPN1 inhibitors; assay type: biochemical; conditions: 0.5 nM enzyme, 2 μM substrate
T2 construct: made in house
T2 sequence (P18031 with tags, fused parts or gaps): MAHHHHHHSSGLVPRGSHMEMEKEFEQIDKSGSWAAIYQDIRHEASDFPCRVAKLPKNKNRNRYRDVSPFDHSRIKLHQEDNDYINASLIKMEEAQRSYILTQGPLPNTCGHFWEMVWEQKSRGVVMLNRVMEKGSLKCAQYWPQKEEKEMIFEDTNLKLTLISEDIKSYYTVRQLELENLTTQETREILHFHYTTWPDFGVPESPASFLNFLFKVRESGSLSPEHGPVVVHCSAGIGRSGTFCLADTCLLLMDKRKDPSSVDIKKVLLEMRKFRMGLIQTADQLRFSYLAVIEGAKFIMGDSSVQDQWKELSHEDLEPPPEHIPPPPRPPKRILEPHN
Procedure: Compound activity was determined using in house His tagged full-length PTPN1 protein (SEQ ID NO: 3) in an in vitro enzymatic reaction. The enzymatic assay used to determine activity is a mobility shift assay using a LabChip EZ Reader by Caliper Life Sciences. The enzymatic reaction was carried out in assay buffer (50 mM HEPES pH 7.5, 1 mM EGTA, 10 mM EDTA. 0.01% Tween® 20, and 2 mM DTT). The compounds were dispensed on a white 384 well ProxiPlate™ (PerkinElmer Cat #6008289) plate using a Labcyte Echo® liquid handler at varying concentrations (12 point, 1:3 dilution). The enzyme (at 0.5 nM) was incubated with compound for 10 minutes at room temperature. Then the substrate (phosphorylated insulin receptor probe sequence: ((OG488)-(NH—CH2—CH2—O—CH2—CH2—O—CH2—CO)-T-R-D-I-(PY)-E-T-D-Y—Y—R—K—K—NH2) (SEQ ID NO: 2) was added at 2 μM to the plates and incubated for another 10 minutes at room temperature. Finally, a quench solution (water and 4-bromo-3-(2-oxo-2-propoxyethoxy)-5-(3-{[1-(phenylmethanesulfonyl)piperidin-4-yl]amino}phenyl)thiophene-2-carboxylic acid) was added to the plates, which were then run on the EZ Reader (excitation 488 nm, emission 530 nm) to measure % conversion (the amount of phosphorylated substrate which was de-phosphorylated by PTPN1). […] The % inhibition was then used to calculate the IC50 values.

IC50 [2] | Compound | IC50 [1]
10 to 100 nM | O=C1CN(c2c(O)cc3c(c2F)C[C@H](NCC2C4CCCC42)CO3)S(=O)(=O)N1 (mixture of isomers) [Compound 383, 5-[(3S)-3-({[(1RS,5SR)-bicyclo[3.1.0]hexan-6-yl]methyl}amino)-5-fluoro-7-hydroxy-3,4-dihydro-2H-1-benzopyran-6-yl]-1λ^6,2,5-thiadiazolidine-1,1,3-trione] | 10 to 100 nM
10 to 100 nM | CC1C[C@@H](NC(=O)OC(C)(C)C)Cc2c1cc(O)c(N1CC(=O)NS1(=O)=O)c2F (mixture of isomers) [Compound 392, tert-butyl [(2R)-8-fluoro-6-hydroxy-4-methyl-7-(1,1,4-trioxo-1λ^6,2,5-thiadiazolidin-2-yl)-1,2,3,4-tetrahydronaphthalen-2-yl]carbamate] | 10 to 100 nM
10 to 100 nM | O=C1CN(c2c(O)cc3c(c2F)CN(C[C@H]2C[C@@H]2c2ccncc2)CC3)S(=O)(=O)N1 (racemic) [Compound 248] | –
10 to 100 nM | CC(C)(CCN[C@H]1CCc2cc(O)c(N3CC(=O)NS3(=O)=O)c(F)c2C1)C(F)(F)F (single isomer, unassigned) [Compound 176] | –
1 to 10 nM | CC(C)(CCN[C@@H]1CCc2cc(O)c(N3CC(=O)NS3(=O)=O)c(F)c2C1)C(F)(F)F (single isomer, unassigned) [Compound 177] | –
< 1 nM | O=C1CN(c2c(O)cc3c(c2F)C[C@H](NCCCC(F)F)CC3)S(=O)(=O)N1 (single isomer, unassigned) [Compound 199] | –
10 to 100 nM | O=C1CN(c2c(O)cc3c(c2F)C[C@@H](NCCC(F)F)CC3)S(=O)(=O)N1 (single isomer, unassigned) [Compound 259] | –
1 to 10 nM | O=C1CN(c2c(O)cc3c(c2F)C[C@H](NCCC(F)F)CC3)S(=O)(=O)N1 (single isomer, unassigned) [Compound 260] | –
1 to 10 nM | CC(C)CCNC[C@@H]1Cc2cc(O)c(N3CC(=O)NS3(=O)=O)c(F)c2C1 (single isomer, unassigned) [Compound 291] | –
10 to 100 nM | CC(C)CCNC[C@H]1Cc2cc(O)c(N3CC(=O)NS3(=O)=O)c(F)c2C1 (single isomer, unassigned) [Compound 292] | –
1 to 10 nM | C[C@@H](O)CCN[C@@H]1CCc2cc(O)c(N3CC(=O)NS3(=O)=O)c(F)c2C1 (single isomer, unassigned) [Compound 307] | –
1 to 10 nM | CC(C)(CO)CCN[C@@H]1CCc2cc(O)c(N3CC(=O)NS3(=O)=O)c(F)c2C1 (single isomer, unassigned) [Compound 308] | –
> 100 nM | [2H]C1([2H])Cc2cc(O)c(N3CC(=O)NS3(=O)=O)c(F)c2C([2H])([2H])[C@@]1([2H])NCCC(C)C (single isomer, unassigned) [Compound 370] | 10 to 100 nM
1 to 10 nM | [2H]C1([2H])Cc2cc(O)c(N3CC(=O)NS3(=O)=O)c(F)c2C([2H])([2H])[C@]1([2H])NCCC(C)C (single isomer, unassigned) [Compound 371] | < 1 nM
10 to 100 nM | NC[C@H]1Cc2cc(O)c(N3CC(=O)NS3(=O)=O)c(F)c2C1 (single isomer, unassigned) [Compound 407] | 10 to 100 nM
1 to 10 nM | NC[C@@H]1Cc2cc(O)c(N3CC(=O)NS3(=O)=O)c(F)c2C1 (single isomer, unassigned) [Compound 408] | 1 to 10 nM
1 to 10 nM | CC(C)CCCC1CCc2cc(O)c(N3CC(=O)NS3(=O)=O)c(F)c2C1 (centres unmarked) [Compound 323] | –

The next lines start with the molecule.

Compound | IC50 [2] | IC50 [1]
CO[C@@H]1CCc2cc(O)c(N3CC(=O)NS3(=O)=O)c(F)c2C1 (single isomer, unassigned) [Compound 104] | 10 to 100 nM | –
CO[C@H]1CCc2cc(O)c(N3CC(=O)NS3(=O)=O)c(F)c2C1 (single isomer, unassigned) [Compound 109] | 10 to 100 nM | –
CC(C)CCN[C@H]1CCc2cc(O)c(N3CC(=O)NS3(=O)=O)c(F)c2C1 (single isomer, unassigned) [Compound 117] | 10 to 100 nM | –
O=C1CN(c2c(O)cc3c(c2F)C[C@H](NCCC2CC2)CC3)S(=O)(=O)N1 (single isomer, unassigned) [Compound 133] | 1 to 10 nM | –
O=C1CN(c2c(O)cc3c(c2F)C[C@@H](NCCC2CC2)CC3)S(=O)(=O)N1 (single isomer, unassigned) [Compound 134] | 10 to 100 nM | –
O=C1CN(c2c(O)cc3c(c2F)C[C@@H]([C@@H]2CCNC2)CC3)S(=O)(=O)N1 (single isomer, unassigned) [Compound 136] | 10 to 100 nM | –
O=C1CN(c2c(O)cc3c(c2F)C[C@@H]([C@@H]2CCN(S(=O)(=O)C4CC4)C2)CC3)S(=O)(=O)N1 (single isomer, unassigned) [Compound 137] | 1 to 10 nM | –
O=C1CN(c2c(O)cc3c(c2F)C[C@@H]([C@H]2CCNC2)CC3)S(=O)(=O)N1 (single isomer, unassigned) [Compound 138] | 10 to 100 nM | –
O=C1CN(c2c(O)cc3c(c2F)C[C@@H]([C@H]2CCN(S(=O)(=O)C4CC4)C2)CC3)S(=O)(=O)N1 (single isomer, unassigned) [Compound 139] | 10 to 100 nM | –
O=C1CN(c2c(O)cc3c(c2F)C[C@@H](NCCCC(F)(F)F)CC3)S(=O)(=O)N1 (single isomer, unassigned) [Compound 147] | 10 to 100 nM | –
O=C1CN(c2c(O)cc3c(c2F)C[C@H](NCCC2(C(F)(F)F)CC2)CC3)S(=O)(=O)N1 (single isomer, unassigned) [Compound 148] | < 1 nM | –
O=C1CN(c2c(O)cc3c(c2F)CCCC3)S(=O)(=O)N1 [Compound 108] | 10 to 100 nM | 10 to 100 nM
O=C1CN(c2c(O)cc3c(c2F)CCCO3)S(=O)(=O)N1 [Compound 111, 5-(5-fluoro-7-hydroxy-3,4-dihydro-2H-1-benzopyran-6-yl)-1λ^6,2,5-thiadiazolidine-1,1,3-trione] | 10 to 100 nM | 10 to 100 nM
CC1(C)CCc2c(cc(O)c(N3CC(=O)NS3(=O)=O)c2F)O1 [Compound 112] | > 100 nM | > 100 nM
CC1(C)CCc2cc(O)c(N3CC(=O)NS3(=O)=O)c(F)c2O1 [Compound 113] | > 100 nM | > 100 nM
O=C1CN(c2c(O)cc3c(c2F)CNCC3)S(=O)(=O)N1 [Compound 143, 5-(8-fluoro-6-hydroxy-1,2,3,4-tetrahydroisoquinolin-7-yl)-1λ^6,2,5-thiadiazolidine-1,1,3-trione] | > 100 nM | 10 to 100 nM
Cc1cc(CNC(=O)N2CCc3cc(O)c(N4CC(=O)NS4(=O)=O)c(F)c3C2)n(C)n1 [Compound 265] | – | 10 to 100 nM
CN(C)CCCNC(=O)N1CCc2cc(O)c(N3CC(=O)NS3(=O)=O)c(F)c2C1 [Compound 285] | – | 10 to 100 nM
CC1=C(CCN[C@@H]2COc3cc(O)c(N4CC(=O)NS4(=O)=O)c(F)c3C2)C(C)(C)CCC1 [Compound 378, 5-[(3S)-5-fluoro-7-hydroxy-3-{[2-(2,6,6-trimethylcyclohex-1-en-1-yl)ethyl]amino}-3,4-dihydro-2H-1-benzopyran-6-yl]-1λ^6,2,5-thiadiazolidine-1,1,3-trione] | – | 10 to 100 nM
